Experimental data as given in patent US8623911B2, “Boron-containing small molecules as anti-protozoal agent” (Anacor Pharmaceuticals, Inc., priority 2010, dated 2014).

How the values were obtained:
[1] = system: LAB 110 Eatro strain of T. b. brucei; experiment: Acute Murine Model A [Murine Stage 1 HAT]; assay type: in vivo
Experimental: Female Swiss Webster mice were inoculated with 250,000 parasites of the LAB 110 Eatro strain of T. b. brucei. 24 hrs post-infection, treatment was initiated by administration of a compound of the invention BID for 4 days with 20 mg/kg/dose (40 mg/kg/day) intraperitoneally (IP) or orally (PO), 5 mg/kg BID or 10 mg/kg BID orally (PO). 3 mice per group were treated with a particular compound of the invention. Mice were checked for parasitemia weekly by microscopic examination of smears prepared from tail vein blood. Animals remaining parasite free for more than 30 days beyond the end of the treatment period were considered cured. Control untreated animals typically succumbed to the infection within 4-5 days following i.p. inoculation with parasites. Mice were monitored for 30 days for survival. Pentamidine at 2 mg/kg IP was used as the positive control. After 10 days, 0% of the untreated mice were parasite free. After 10 days, 67% of mice treated PO with 10 mg/kg BID of N-(1-Hydroxy-3,4-dihydro-1H-benzo[c][1,2]oxaborinin-7-yl)-4-methoxy-benzamide (M19) were parasite free. After 30 days, 100% of mice treated PO with 10 mg/kg BID of 4-fluoro-N-(1-hydroxy-3,4-dihydro-1H-benzo[c][1,2]oxaborinin-7-yl)-2-trifluoromethyl-benzamide (M1) were parasite free.

[2] = system: TREU 667 strain of T. b. brucei; experiment: Chronic CNS Model [Murine Stage 2 HAT]; assay type: in vivo; settings: 50 mg/kg PO BID for 7 days, starting at Day 21 post-infection
Experimental: Mice were infected with 10,000 parasites of the TREU 667 strain of T. b. brucei. Twenty one days post-infection mice were treated with a dose of between 6 and 100 mg/kg of a compound of the invention, either BID or QD for 7 days intraperitoneally (IP) or orally (PO). Positive control mice were treated with Diminazene (10 mg/kg, IP) on Day 4 post-infection. Negative control mice were treated with Diminazene (10 mg/kg, PO) on Day 21. Since Diminazene is not able to penetrate the CNS, mice treated at Day 21 are not able to cure the infection. Starting 1 week after treatment, mice were checked for parasitemia by microscopic examination of smears prepared from tail vein blood. Parasite positive animals were immediately removed from the cages and euthanized. Animals were considered to be cured of a CNS infection if they were aparasitemic for at least 180 days after the end of the treatment period.

Question: Which results are given for `O=C(Nc1ccc2c(c1)B(O)OCC2)c1ccc(F)cc1C(F)(F)F` [M1, 4-Fluoro-N-(1-hydroxy-3,4-dihydro-1H-benzo[c][1,2]oxaborinin-7-yl)-2-trifluoromethyl-benzamide]?
Answer: mice parasite free after 30 days ([1]; female Swiss Webster mice, PO 10 mg/kg BID for 4 days, after 30 days): 100%; Mean Survival Days ([1]; mice infected with T. b. brucei, 10 mg/kg, BID, orally, 4 days): 30 days; mice with absence of blood parasites through Day 180 [2]: 100%
